In PMC5839231, “Isolation and Characterization of Protein Tyrosine Phosphatase 1B (PTP1B) Inhibitory Polyphenolic Compounds From Dodonaea viscosa and Their Kinetic Analysis” (Frontiers in Chemistry, 2018):
Where two headings read alike, the source gives them in different places.

Experiments:
[1] = biological target: T1, Protein tyrosine phosphatase 1B (PTP1B) (Homo sapiens, UniProt P18031); test: PTP1B inhibitory assay (hydrolysis of p-nitrophenyl phosphate, 405 nm); assay type: biochemical; conditions: for IC50: pNPP substrate, 37°C, experiments repeated three times
T1 sequence (P18031 1-435): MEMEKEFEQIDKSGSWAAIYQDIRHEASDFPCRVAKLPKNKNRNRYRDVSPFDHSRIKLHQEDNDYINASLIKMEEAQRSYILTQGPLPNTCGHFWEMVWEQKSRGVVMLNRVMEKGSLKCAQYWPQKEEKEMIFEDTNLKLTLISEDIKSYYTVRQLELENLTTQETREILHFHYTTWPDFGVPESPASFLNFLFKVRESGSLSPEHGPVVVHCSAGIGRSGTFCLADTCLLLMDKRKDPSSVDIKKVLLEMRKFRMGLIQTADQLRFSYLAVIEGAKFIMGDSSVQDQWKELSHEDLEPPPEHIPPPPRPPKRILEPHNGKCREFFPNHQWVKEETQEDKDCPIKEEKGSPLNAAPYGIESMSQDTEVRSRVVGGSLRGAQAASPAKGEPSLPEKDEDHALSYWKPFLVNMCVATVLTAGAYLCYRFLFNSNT
Procedure: (§1) Protein tyrosine phosphatase 1B inhibitory assay was performed with slight modification to the previously reported method (Song et al., [2017]). Tris–HCl buffer (25 mM, pH 7.5) which contained 1 mM (ethylenediaminetetraacetic acid) EDTA, 1 mM dithiothreitol (DTT), and 2 mM β-mercaptoethanol was used as buffer solution, whereas p-nitrophenyl phosphate (pNPP), a substrate of PTP1B was utilized for enzyme activity measurement. Enzyme assay was started by mixing 10 μL of test compounds with 130 μL of Tris-HCl buffer solution in 96-well plate, then 20 μL of enzyme (EC 3.1.3.48, 1μg/mL), and finally 40 μL of substrate (4 mM pNPP) was added at 37°C for 10 min. During the substrate hydrolysis, pNPP was de-phosphorylated, giving product pNP, which was detected by Spectra Max M3 Multi-Mode Microplate reader (Molecular devices, USA) at a wavelength of 405 nm for 30 min. […] Kinetic parameters were determined by Line weaver-Burk and Dixon plots. Sigma Plot (SPCC Inc., Chicago, IL, USA) was utilized for data setting and calculation.

[2] = biological target: T1, Protein tyrosine phosphatase 1B (PTP1B); test: PTP1B inhibitory kinetics (Lineweaver-Burk, Dixon and secondary plots); assay type: biochemical; conditions: for Type of inhibition: Lineweaver-Burk plots, substrate 0.437-1.75 mM pNPP
Procedure: as §1
In order to study detailed kinetics of PTP1B, Michaelis-Menten equation (4) is applied, who's reciprocal is taken which transform to a new equation, Line weaver-Burk equation (5). Using this equation Line weaver-Burk plots were constructed, which were applied for the analysis of inhibitory kinetics of test compounds. Different inhibitor concentrations accompanied with varying substrate concentrations were used for determination of enzymes steady-state rates, subsequently kinetic parameters related to PTP1B inhibition were also determined. The values of inhibitory constants KI and KIS, when free enzyme binds with inhibitor (KI) or enzyme-substrate-complex interact with inhibitor (KIS) were obtained from secondary plots of the slopes and vertical intercept (1/V^appmax) vs. inhibitors concentration. The representative Equations (1–3) were used to acquire KI and KIS values (Chiari et al., [2011]).
For inhibition parameters, an assay was performed having different substrate concentrations (0.437–1.75 mM), and several dilutions of tested compounds.
The effects of different concentrations of the bioactive active compounds on the hydrolysis of p-nitrophenyl phosphate by PTP1B were studied. We assayed different concentrations (3.75, 7.5, 15, 30, 60, and 120 μM) of inhibitors (1-9) with the given enzyme and substrate. As a result, we observed a gradual decrease in enzyme activity (% activity) with increasing inhibitors concentrations as shown in Figure 2A. […] Plots of residual enzyme activity vs. enzyme concentration at different concentrations (0, 6.7, 13.5, and 27 μM) of compound 4 gave a family of lines which intersected on x-axis at 0 intercept. […] In order to explore the mechanistic behavior and kinetic features of the tested compounds, detailed kinetic study was performed. For this purpose the target enzyme was assayed in different concentrations of substrate (0.437, 0.875, 1.75 mM), in the presence of several dilutions of the respective compound, been graphically presented in double reciprocal plots (Linweaver-Burk and Dixon plots). Representatively, here we have explained compound 4 in detail, the Lineweaver-Burk plots of (4) produced a family of straight lines which intersected on the left side of y-axis and above the x-axis as shown in Figure 3A. The inhibitory constants (KI and KIS) were obtained by plotting the slopes and intercepts vs. different concentrations of compound 4 (Figure 3A, insets). […] In kinetic plots the abscissa [I] is the concentration of compound, where the coordinate1/V represents reciprocal of enzyme activity.

[3] = from Dixon plots, read-out: Ki (inhibition constant)

COc1cc2oc(-c3ccc(O)cc3)c(OC)c(=O)c2c(O)c1OC [Compound 1, penduletin]
IC50 [1]: 57.9 ± 0.6 µM | Type of inhibition [2]: Mixed | Ki [2, 3]: 27.3 µM

COc1c(O)cc2oc(-c3ccc(O)cc3)c(OC)c(=O)c2c1O [Compound 3, viscosine]
IC50 [1]: 18.7 ± 0.6 µM | Type of inhibition [2]: Mixed | Ki [2, 3]: 6.9 µM

COc1ccc(-c2oc3cc(O)c(OC)c(O)c3c(=O)c2OC)cc1CC=C(C)C [Compound 4, 5,7-dihydroxy-3,6-dimethoxy-2-(4-methoxy-3-(3-methylbut-2-enyl)phenyl)-4H-chromen-4-one]
fold more potency than mother skeleton 1 ([1]; IC50 comparison with compound 1): 6 fold | fold more potency than mother skeleton 2 ([1]; IC50 comparison with compound 2): 2.5 fold | IC50 [1]: 13.5 ± 0.3 µM | Type of inhibition [2]: mixed type I | Ki [2, 3]: 4.6 µM | Reversibility of inhibition ([2]; residual enzyme activity vs. enzyme concentration at 0, 6.7, 13.5, 27 μM inhibitor): reversible | KIS (inhibitor binding to enzyme-substrate complex) ([2]; secondary plot of intercepts vs. inhibitor concentration, Equation 3): 26.4 ± 0.4 µM | Ki ([2]; secondary plot of slopes vs. inhibitor concentration, Equation 2, read-out: KI (inhibitor binding to free enzyme)): 4.1 ± 0.2 µM

C=C(C)C(O)Cc1cc(-c2oc3cc(O)c(OC)c(O)c3c(=O)c2OC)ccc1OC (centres unmarked) [Compound 5, 5,7-dihydroxy-3′-(2-hydroxy-3-methylbutenyl)-3,6,4′-trimethoxy-flavone]
IC50 [1]: 28.4 ± 0.9 µM | Type of inhibition [2]: Mixed | Ki [2, 3]: 10.1 µM

COc1ccc(-c2oc3cc(O)c(OC)c(O)c3c(=O)c2OC)cc1CCC(C)CO (centres unmarked) [Compound 6]
IC50 [1]: 56 ± 0.3 µM | Type of inhibition [2]: Mixed | Ki [2, 3]: 22.8 µM

COc1c(O)cc2oc(-c3ccc(O)c(CCC(C)CO)c3)c(OC)c(=O)c2c1O (centres unmarked) [Compound 7, 5,7,4′-trihydroxy-3′-(3-hydroxymethylbutyl)-3,6-dimethoxyflavone]
IC50 [1]: 41.8 ± 0.5 µM | Type of inhibition [2]: Mixed | Ki [2, 3]: 14.3 µM

CC1OC(OCC2OC(Oc3c(-c4ccc(O)cc4)oc4cc(O)cc(O)c4c3=O)C(O)C(O)C2O)C(O)C(O)C1O (centres unmarked) [Compound 8, Kaempferol 3-O-rutinoside]
IC50 [1]: 20.5 ± 0.8 µM | Type of inhibition [2]: Non-competitive | Ki [2, 3]: 13 µM

COc1cc(-c2oc3cc(O)cc(O)c3c(=O)c2OC2OC(COC3OC(C)C(O)C(O)C3O)C(O)C(O)C2O)ccc1O (centres unmarked) [Compound 9, Isorhamnetin3-O-robinobioside]
IC50 [1]: 42.9 ± 0.4 µM | Type of inhibition [2]: Non-competitive | Ki [2, 3]: 26.4 µM
